According to US20250326708A1, “LONG-ACTING SPLEEN-TARGETING CATIONIC LIPID COMPOUND COMPRISING BENZENE RING STRUCTURE, COMPOSITION COMPRISING SAME, AND USE THEREOF” (Beijing Youcarekechuang Pharmaceutical Technology Co., Ltd., priority 2024, published 2025):
Values joined by “and” are separate entries in the source; they are usually repeats but may differ in a detail not shown here. Identical values can stand only once.

Key:
female BALB/C mice [1] = experiment: Distribution of delivered small nucleic acid drug (Cy5 fluorescently labeled Leqvio) in different organs of mice; assay type: in vivo
Protocol: LNP preparations containing 5 μg of Cy5 fluorescently labeled Leqvio were injected via the tail vein into female BALB/C mice (4 to 6 weeks old, weighing 17 to 19 g). At a specific time point after administration (4 h), the average radiation intensity (corresponding to fluorescence intensity) resulting from the Cy5 fluorescently labeled Leqvio delivered by the LNP preparations in the mice in vivo was detected using the IVIS Spectrum small-animal in vivo imaging system. After sampling, the mice were killed by cervical dislocation and dissected, and the internal organs: heart, liver, spleen, lung, kidney, and lymph of mice were accurately isolated. The average radiation intensity (corresponding to fluorescence intensity) resulting from Cy5 fluorescently labeled Leqvio delivered by the LNP preparations in various organs of mice was then detected using the IVIS Spectrum small-animal in vivo imaging system.

female BALB/C mice [2] = experiment: Expression of delivered mRNA in mice in vivo (IVIS in vivo imaging); conditions: for Expression level of mRNA in vivo, times that of YK-904: vs YK-904; for Average radiation intensity, in vivo imaging: 10 μg Fluc-mRNA via tail vein; for Expression level of mRNA in vivo, times that of SM-102: vs SM-102; for Expression level of mRNA in vivo, times that of YK-501: vs YK-501; for Expression level of mRNA in vivo, times that of YK-506: vs YK-506; for Expression level of mRNA in vivo, times that of compound 7: vs compound 7
How it was run: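 Female BALB/c mice (4–6 weeks, 17–19 g) received LNPs carrying 10 μg Fluc-mRNA via tail vein. At 6 h, 24 h, 48 h and 7 d, imaging substrate was given i.p. and, after 5 min, average radiance was measured by IVIS Spectrum imaging.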

293T cells = experiment: Fluorescence detection of Fluc-mRNA (transfection efficiency) of LNP preparations; assay type: cell-based; conditions: Fluc-mRNA LNP
How it was run: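 293T cells seeded at 10,000 per well in 96-well plates overnight, then dosed with LNPs (cationic lipid:DSPC:cholesterol:DMG-PEG2000 49:10:39.5:1.5 molar; total lipid:mRNA 15:1 w/w) carrying 0.3 μg Fluc-mRNA. After 24 h, luciferase kit reagents added and fluorescence intensity per well read by IVIS imaging.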

female BALB/C mice [3] = experiment: Expression of delivered mRNA in different organs of mice (organ imaging); assay type: in vivo
How it was run: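 Female BALB/C mice (4–6 weeks, 17–19 g) received LNPs carrying 5 μg Fluc-mRNA subcutaneously. At 6 h, imaging substrate was given i.p.; after 5 min, whole-body and then excised-organ (heart, liver, spleen, lung, kidney, lymph) average radiance was measured by IVIS Spectrum imaging.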

[4] = 4 hours after 5 μg Cy5 fluorescently labeled Leqvio via tail vein
[5] = 6 hours after 5 μg Fluc-mRNA subcutaneously

Average radiation intensity of mouse organs: Heart (female BALB/C mice [1]; [4]): 0
Average radiation intensity of mouse organs: Kidney (female BALB/C mice [1]; [4]): 53243
Average radiation intensity of mouse organs: Liver (female BALB/C mice [1]; [4]): 33583
Average radiation intensity of mouse organs: Lung (female BALB/C mice [1]; [4]): 0
Average radiation intensity of mouse organs: Lymph (female BALB/C mice [1]; [4]): 0
Average radiation intensity of mouse organs: Spleen (female BALB/C mice [1]; [4]): 63583
Fluorescence intensity in the spleen, times that of SM-102 (female BALB/C mice [1]; Cy5 Leqvio, spleen, 4 h, vs SM-102): 51.19 times
Fluorescence intensity in the spleen, times that of YK-501 (female BALB/C mice [1]; Cy5 Leqvio, spleen, 4 h, vs YK-501): 11.91 times
Fluorescence intensity in the spleen, times that of YK-506 (female BALB/C mice [1]; Cy5 Leqvio, spleen, 4 h, vs YK-506): 2.85 times
Fluorescence intensity in the spleen, times that of direct administration (female BALB/C mice [1]; Cy5 Leqvio, spleen, 4 h, vs direct administration): 150.67 times
Compound: CCCCCCCCCCCOC(=O)CCCN(CCCCCCC(=O)OCCC(CCCCCC)CCCCCC)CCNC(CO)(CO)CCc1ccc(CCCCCCCC)cc1 [YK-910, 3-hexylnonyl 7-((2-((1-hydroxy-2-(hydroxymethyl)-4-(4-octylphenyl)butan-2-yl)amino)ethyl) (4-oxo-4-(undecyloxy)butyl)amino) heptanoate]
Expression level of mRNA in vivo, times that of YK-904 (female BALB/C mice [2]; 6 h): 12.03 times
Average radiation intensity, in vivo imaging (female BALB/C mice [2]; 6 h): 13425454
Expression level of mRNA in vivo, times that of SM-102 (female BALB/C mice [2]; 24 h): 6.78 times
Expression level of mRNA in vivo, times that of YK-501 (female BALB/C mice [2]; 24 h): 12.21 times
Expression level of mRNA in vivo, times that of YK-506 (female BALB/C mice [2]; 24 h): 8.28 times
Expression level of mRNA in vivo, times that of YK-904 (female BALB/C mice [2]; 24 h): 18.49 times
Expression level of mRNA in vivo, times that of compound 7 (female BALB/C mice [2]; 24 h): 11.50 times
Average radiation intensity, in vivo imaging (female BALB/C mice [2]; 24 h): 2133322
Expression level of mRNA in vivo, times that of YK-904 (female BALB/C mice [2]; 48 h): 23.07 times
Average radiation intensity, in vivo imaging (female BALB/C mice [2]; 48 h): 658643
Expression level of mRNA in vivo, times that of SM-102 (female BALB/C mice [2]; 7 d): 9.24 times
Expression level of mRNA in vivo, times that of YK-501 (female BALB/C mice [2]; 7 d): 15.15 times
Expression level of mRNA in vivo, times that of YK-506 (female BALB/C mice [2]; 7 d): 2.49 times
Expression level of mRNA in vivo, times that of YK-904 (female BALB/C mice [2]; 7 d): 26.32 times
Expression level of mRNA in vivo, times that of compound 7 (female BALB/C mice [2]; 7 d): 10.03 times
Average radiation intensity, in vivo imaging (female BALB/C mice [2]; 7 d): 85363
Cellular transfection efficiency, times that of HHMA (293T cells; vs HHMA): 8.53 times
Cellular transfection efficiency, times that of I-1 (293T cells; vs I-1): 42.56 times
Cellular transfection efficiency, times that of Lipofectamine 3000 (293T cells; vs Lipofectamine 3000): 10.24 times
Cellular transfection efficiency, times that of MC3 (293T cells; vs MC3): 90.92 times
Cellular transfection efficiency, times that of SM-102 (293T cells; vs SM-102): 6.04 times
Cellular transfection efficiency, times that of YK-501 (293T cells; vs YK-501): 186.59 times
Cellular transfection efficiency, times that of YK-506 (293T cells; vs YK-506): 13.19 times
Cellular transfection efficiency, times that of YK-903 (293T cells; vs YK-903): 345.06 times
Cellular transfection efficiency, times that of YK-906 (293T cells; vs YK-906): 313 times and 313.25 times
Cellular transfection efficiency, times that of compound 7 (293T cells; vs compound 7): 33.51 times
Average radiation intensity of mouse organs: Heart (female BALB/C mice [3]; [5]): 0
Average radiation intensity of mouse organs: Kidney (female BALB/C mice [3]; [5]): 0
Average radiation intensity of mouse organs: Liver (female BALB/C mice [3]; [5]): 11424
Average radiation intensity of mouse organs: Lung (female BALB/C mice [3]; [5]): 0
Average radiation intensity of mouse organs: Lymph (female BALB/C mice [3]; [5]): 0
Average radiation intensity of mouse organs: Spleen (female BALB/C mice [3]; [5]): 242444
Expression level of mRNA in the spleen, times that of SM-102 (female BALB/C mice [3]; spleen, 6 h, vs SM-102): 9.49 times
Expression level of mRNA in the spleen, times that of YK-501 (female BALB/C mice [3]; spleen, 6 h, vs YK-501): 17.04 times
Expression level of mRNA in the spleen, times that of YK-506 (female BALB/C mice [3]; spleen, 6 h, vs YK-506): 3.40 times
